# Results: patent US10927115B2, “Substituted heterocycles for targeting Hsp90” (Duke University, priority 2012, dated 2021)
# Columns and labels:
# MCF cells = test: Heat treatment of cells, compound 10 uptake, micro anion-exchange chromatography of extracts; assay type: cell-based; details: 10 μM, FIG. 13B
# Experimental: MCF cells were heated to 42° C. or maintained at 37° C. for 60 minutes. Compound 10 was added (10 μM) and after 60 minutes the cells harvested. Extracts were prepared and separated by micro anion-exchange chromatography. Column fractions were analyzed for the presence of compound 10.
# Hsp90 = test: Recovery of compound 10 bound to purified Hsp90 by microanion exchange chromatography; assay type: binding, pig; details: excess compound 10, dialysis; Western blot and mass spectrometry; FIG. 13A
# Experimental: (§1) Hsp90 was purified from pig mammary gland as described in Hughes et al., Bioorg Med Chem. 2012, 20(10):3298-3305. The purified protein (0.3 g) was mixed with an excess of compound 10. The unbound probe was removed by dialysis and the labeled protein subjected to microanion exchange chromatography using a Pharmacia SMART system. Column fractions (100 μL) were collected and analyzed for fluorescence in a plate reader. […] The chromatography experiment was then repeated on cell extracts prepared from MCF7 and BT474 cells treated with compound 10.
# MCF10 (benign) cells = test: Probe detection of Hsp90 in cells ± membrane permeabilization with Triton X 100; assay type: cell-based; details: MCF10, non-permeabilized; FIG. 5B
# Experimental: (§2) In another experiment, MCF7 (metastatic) and MCF10 (benign) cells were treated with an Hsp90 antibody±membrane permeabilization with Triton X 100. […] After permeabilization the antibody recognizes intracellular Hsp90. […] The experiment was also performed using fluorescein compound 10. […] In FIGS. 5A-5B the green staining from compound 10 fluorescence appears white, while blue from the DAPI-stained nuclei appears gray.
# MCF7 (metastatic) cells = test: as above; assay type: cell-based; details: FIG. 5B
# Experimental: as §2
# xenografts (MDA-MB 468) = test: Confocal analysis of xenograft tissue slices after IP injection; assay type: in vivo; details: harvested one hour after injection (IP), FIG. 8
# Experimental: Tissue slices were prepared from the harvested xenografts and prepared for analysis by confocal analysis. […] A tissue slice from the control experiment is shown in which the animal was injected with vehicle alone (DMSO). Only background fluorescence is detected. In FIG. 8 the green staining from compound 10 fluorescence appears white or light gray, while blue from the DAPI-stained nuclei appears dark gray.
# MCF7 cells = test: Anion exchange chromatography of extracts of cells treated with compound 10; assay type: cell-based; details: MCF7 cells treated with compound 10; peak at 49 minutes
# Experimental: as §1
# BT474 cells = test: as above; assay type: cell-based; details: BT474 cells treated with compound 10; peak at 49 minutes
# Experimental: as §1
# MDA-MB-468 tumor = test: In vivo detection of compound 10 with optical spectroscopy; set-up: species or system SCID mice; details: 1 mg via tail vein, FIG. 15
# Experimental: MDA-MB-468 tumor cells (1 M cells/mouse) were injected to the flank of SCID mice. Three weeks later, when tumor size reached 5-8 mm in diameter, the experiment was performed. Baseline autofluorescence levels were measured for tumor and normal tissues (skin adjacent to tumor). 1 mg or 0.5 mg of compound 10 was injected via tail vein. After drug injection, fluorescence signals were measured with the optical spectroscopy (˜30 min). Two days after injection, measurement of fluorescence signal was repeated.
# Normal: Normal skin adjacent to tumor. All data are normalized to peak fluorescence intensity to compare fluorescence line shapes. […] Measurements were made within a few minutes of injection.
smiles,measurement,setting,value
"Cc1nn(-c2ccc(C(N)=O)c(NCCCOCCOCCOCCOCCOCCCNC(=S)Nc3ccc4c(c3)C(=O)OC43c4ccc(O)cc4Oc4cc(O)ccc43)c2)c2c1C(=O)CC(C)(C)C2 [Compound 10, 2-((1-((3′,6′-dihydroxy-3-oxo-3H-spiro[isobenzofuran-1,9′-xanthen]-5-yl)amino)-1-thioxo-6,9,12,15,18-pentaoxa-2-azahenicosan-21-yl)amino)-4-(3,6,6-trimethyl-4-oxo-4,5,6,7-tetrahydro-1H-indazol-1-yl)benzamide]",major peak of fluorescence of cell extract,MCF cells; 60 minutes,correlates with elution of Hsp90
same,effect of heat treatment on uptake,MCF cells; 42° C. vs 37° C. for 60 minutes,increased uptake
same,fluorescence elution profile of labeled purified Hsp90,Hsp90,single peak was recovered by fluorescence that correlated with elution of Hsp90
same,probe entry and detection of Hsp90,MCF10 (benign) cells,not in MCF10 cells
same,probe entry and detection of Hsp90,"MCF7 (metastatic) cells; MCF7, non-permeabilized",enters and detects Hsp90
same,detection of intracellular Hsp90 following permeabilization,"MCF7 (metastatic) cells; MCF7 compared with MCF10, Triton X 100",detects more intracellular Hsp90 in MCF7s
same,presence of compound in tumor cells of xenograft,xenografts (MDA-MB 468),detected within the tumor cells
same,fluorescence peak of cell extract,MCF7 cells,co-elutes with Hsp90
same,fluorescence peak of cell extract,BT474 cells,co-elutes with Hsp90
same,"fluorescence signal in tumor, Day 3",MDA-MB-468 tumor,still retains FITC signal
same,"fluorescence signal at normal site, Day 3",MDA-MB-468 tumor; normal skin adjacent to tumor,declined to pre-injection baseline level
same,"fluorescence signal, normal skin versus tumor, Day 0",MDA-MB-468 tumor; within a few minutes of injection,Normal shows higher signal than tumor
